# Source: patent US10788497B2, “Method for detecting oxidising species” (ECOLE POLYTECHNIQUE, priority 2015, dated 2020)
# Test system: EGFR (Epidermal Growth Factor Receptor)
# Test: Hydrogen peroxide production in vascular smooth muscle cells after endothelin-1 stimulation, with or without EGFR inhibition, measured with YAG:Ce and reduced GdVO4:Eu nanoparticles
# Format: cell-based
# Details: mouse vascular smooth muscle cells; 270 nM endothelin-1; AG1478 applied 30 min before stimulation and added to the observation medium
# Experimental: Firstly, mammalian cells were prepared. For this purpose, mouse vascular smooth muscle cells (primary culture) were cultured in RPMI (“Roswell Park Memorial Institute” medium) containing 10% of fetal calf serum and antibiotics, in the present case penicillin and streptomycin. When confluence reaches 80%, the cells are taken and deposited on glass slides. In this particular case, 1.5×10^4 cells are typically arranged on a glass slide. The cells are then cultured on the slides for forty-eight hours in the complete culture medium, and then in a medium without serum for twenty-four hours.
# In addition, a stable colloidal solution of […] with a concentration roughly equal to 1 mM is prepared. […]
# Then a slide with cells loaded with nanoparticles is placed on a sample holder and 1 mL of buffered physiological medium (HBSS/1 mM HEPES) is added. […] After fifty seconds of observation, the initial medium is replaced with physiological medium containing 270 nM of endothelin-1 (ET-1) and the luminescence of individual nanoparticles is observed for several minutes on a full-field sensor (EM-CCD ImageEM camera, Hamamatsu). […]
# Next, the variations in intensity of the particles observed (doped with Ce or Eu) over time are determined using image analysis or calculation software (for example Matlab). Each curve obtained is normalized, taking the first values measured for reference. […]
smiles,measurement,value
COc1cc2ncnc(Nc3cccc(Cl)c3)c2cc1OC [AG1478],contribution of the EGFR pathway to hydrogen peroxide production (inhibited cells produce half as much hydrogen peroxide as the normal cells),50%
